Tests used:
[1] = tested on: murine melanoma B16 cells; test: Melanin production in murine melanoma B-16 cells; format: cell-based; conditions: for Melanin production (%): B16 cells, 3 days; for inhibitory effects on melanin production (in words): any of the concentrations assayed
Description: (§1) The melanoma cell line was grown in DMEM culture medium containing 4.5 g of glucose/l, 10% fetal bovine serum and 1% antibiotic agent and cultivated at 37° C. under a condition of 5% CO2. The cell suspension was inoculated in a 50 mL T-flask (3×10^5 cells/mL) and the cells were allowed to completely adhere to the plate for 24 hr. Then, test samples diluted in DMEM medium at concentrations of 1, 5, 10, 50, and 100 μg/mL were added to the cultivated cells, and the mixture was cultivated at 5% CO2 and 37° C. for 3 days. After cultivation, culture medium was thoroughly removed and the cells were isolated via trypsin treatment. The suspensions were then centrifuged for 5 min to collect cells. The obtained cells were treated with 5% trichloroacetic acid (TCA), stirred and centrifuged. The precipitated melanin was washed with phosphate buffered saline (PBS), and treated with 1 N NaOH to dissolve the melanin therein. Absorbance at 475 nm was measured. Melanin concentration was determined from a standard concentration curve of synthetic melanin (SIGMA Co., USA).

melan-a cell line [2] = test: Melanin production in melan-a cell line; format: cell-based; conditions: melan-a cells; for Melanin production (%): 72 hr; for inhibitory effects on melanin production (in words): any of the concentrations assayed
Description: (§2) Melan-a cells were grown in 10 mL of RPMI 1640 medium supplemented with antibiotics, 10% fetal bovine serum (FBS), and 20 nM TPA. The cell suspension was inoculated in a 24-well plate (10^5 cells/mL) and the cells were allowed to completely adhere to the plate for 24 hr. Test samples dissolved in DMSO were added to the plate and incubated at 37° C. for 72 hr in a CO2 incubator. The culture medium was then thoroughly removed and the cells were isolated through trypsin treatment. The suspensions were then centrifuged for 5 min to collect cells, which were then treated with 5% trichloroacetic acid (TCA), stirred and centrifuged to precipitate the melanin. Melanin was washed with PBS and dissolved in 1 N NaOH. Absorbance at 475 nm was measured. Melanin concentration was determined from a standard concentration curve of synthetic melanin (SIGMA Co., USA).

[3] = tested on: murine melanoma B16 cells; test: Cell viability (MTT assay) of murine melanoma B-16 cells; format: cell-based
Description: as §1
(§3) We used the MTT assay to determine the percentage of viable cells. After cultivation was completed, a solution of MTT was added to the cultivation solution and the mixture was incubated at 37° C. for 4 hr. After incubation, culture medium was thoroughly removed, and the residue was treated with DMSO (Dimethyl sulfoxide) and shaken for 20 min. The optical density at 580 nm was measured by an ELISA microplate reader.

melan-a cell line [4] = test: Cell viability (MTT assay) of melan-a cell line; format: cell-based
Description: as §2, §3

Mushroom Tyrosinase [5] = test: Extended duration of mushroom tyrosinase inhibition (up to 24 hours); format: biochemical; conditions: for reaction time until loss of tyrosinase inhibitory activity: 37° C., FIG. 3
Description: (§4) L-Tyrosine, the substrate for tyrosinase, was dissolved in 50 mM sodium phosphate buffer (pH6.8) to prepare a solution of 0.1 mg/mL L-tyrosine. […] 100 μL of the L-tyrosine solution was introduced into a test tube, and 100 μL of 50 mM sodium phosphate buffer (pH6.8) with or without test samples were added thereto, and then 10 μL of 200 U/mL tyrosinase were mixed and incubated at 37° C. for 15 min.
Using the experimental conditions described in the Mushroom Tyrosinase experiment described above, the reaction mixtures, containing various concentrations from 1 μg/mL to 50 μg/mL of the agents assayed, were incubated at 37° C. and spectrophotometric measurements of dopachrome were made at time intervals of up to 24 hours.

Mushroom Tyrosinase [6] = test: Inhibitory effects on mushroom tyrosinase (dopachrome, OD490, 15 min); format: biochemical; conditions: for IC50: 37° C., 15 min, L-tyrosine substrate
Description: as §4
The amount of dopachrome in the reaction mixture was determined spectrophotmetrically using absorbance measurement at 490 nm.

melanocytes = test: Microscopic observation of pigmentation of confluent melanocyte monolayer; format: cell-based; conditions: cell line not specified
Source text: The pigmentation of a confluent monolayer of melanocytes is visible microscopically, as the cells contain black melanin pigment.

| Structure (SMILES) | Melanin production (%) ([1]; 1 μg/mL) | Melanin production (%) ([1]; 5 μg/mL) | Melanin production (%) ([1]; 10 μg/mL) | Melanin production (%) ([1]; 50 μg/mL) | Melanin production (%) ([1]; 100 μg/mL) | inhibitory effects on melanin production (in words) ([1]; melanoma B-16 cells) | Melanin production (%) (melan-a cell line [2]; 1 μg/mL) | Melanin production (%) (melan-a cell line [2]; 5 μg/mL) | Melanin production (%) (melan-a cell line [2]; 10 μg/mL) | Melanin production (%) (melan-a cell line [2]; 50 μg/mL) | Melanin production (%) (melan-a cell line [2]; 100 μg/mL) | inhibitory effects on melanin production (in words) (melan-a cell line [2]) | Cell viability (%) ([3]; B16 cells, 1 μg/mL, MTT) | Cell viability (%) ([3]; B16 cells, 5 μg/mL, MTT) | Cell viability (%) ([3]; B16 cells, 10 μg/mL, MTT) | Cell viability (%) ([3]; B16 cells, 50 μg/mL, MTT) | Cell viability (%) ([3]; B16 cells, 100 μg/mL, MTT) | Cell viability (%) (melan-a cell line [4]; melan-a cells, 1 μg/mL, MTT) | Cell viability (%) (melan-a cell line [4]; melan-a cells, 5 μg/mL, MTT) | Cell viability (%) (melan-a cell line [4]; melan-a cells, 10 μg/mL, MTT) | further results |
| --- | --- | --- | --- | --- | --- | --- | --- | --- | --- | --- | --- | --- | --- | --- | --- | --- | --- | --- | --- | --- | --- |
| OC[C@H]1O[C@@H](Oc2ccc(O)cc2)[C@H](O)[C@@H](O)[C@@H]1O [Arbutin, arbutin] | 99.4 ± 2.1 | 100.8 ± 4.5 | 103.2 ± 1.9 | 98.9 ± 8.2 | 98.2 ± 6.9 | did not show inhibitory effects on melanin production | 104.2 ± 3.2 | 103.7 ± 4.6 | 102.0 ± 5.7 | 100.4 ± 4.0 | 99.5 ± 7.2 | did not show inhibitory effects on melanin production | 102.4 ± 5.3 | 100.1 ± 7.8 | 98.5 ± 6.3 | 96.6 ± 8.0 | 93.2 ± 5.6 | 104.2 ± 7.2 | 105.2 ± 8.3 | 100.7 ± 5.0 | Cell viability (%) (melan-a cell line [4]; melan-a cells, 50 μg/mL, MTT): 98.3 ± 7.7%; Cell viability (%) (melan-a cell line [4]; melan-a cells, 100 μg/mL, MTT): 93.8 ± 5.6%; reaction time until loss of tyrosinase inhibitory activity (Mushroom Tyrosinase [5]; 2 μg/mL): loses activity in about one hour; reaction time until loss of tyrosinase inhibitory activity (Mushroom Tyrosinase [5]; 5 μg/mL): loses activity in about one hour; IC50 (Mushroom Tyrosinase [6]): 145 µM |
| O=c1cc(CO)occ1O [Kojic acid, kojic acid] | 102.4 ± 4.7 | 98.2 ± 7.1 | 96.5 ± 3.7 | 94.1 ± 5.2 | 91.6 ± 7.1 | did not show inhibitory effects on melanin production | 103.4 ± 5.4 | 100.5 ± 8.2 | 99.4 ± 7.1 | 95.1 ± 6.7 | 92.4 ± 8.0 | did not show inhibitory effects on melanin production | 95.2 ± 8.3 | 97.2 ± 7.6 | 96.2 ± 5.0 | 86.7 ± 3.4 | 81.7 ± 8.5 | 95.3 ± 8.0 | 96.8 ± 4.7 | 95.1 ± 9.0 | Cell viability (%) (melan-a cell line [4]; melan-a cells, 50 μg/mL, MTT): 84.2 ± 8.2%; Cell viability (%) (melan-a cell line [4]; melan-a cells, 100 μg/mL, MTT): 80.5 ± 8.3%; reaction time until loss of tyrosinase inhibitory activity (Mushroom Tyrosinase [5]; 2 μg/mL): loses activity within two hours; reaction time until loss of tyrosinase inhibitory activity (Mushroom Tyrosinase [5]; 5 μg/mL): within five hours |
| Oc1cc(O)cc(/C=C/c2ccc(O)cc2O)c1 [Oxyresveratrol, oxyresveratrol] | 94.3 ± 7.7 | 90.8 ± 4.4 | 87.5 ± 6.9 | 57.3 ± 8.1 | 19.5 ± 8.2 | – | 95.1 ± 3.1 | 90.2 ± 6.4 | 88.5 ± 7.4 | 60.3 ± 9.1 | 20.6 ± 4.9 | – | – | – | – | – | – | – | – | – | reduction in melanin production ([1]; melanoma B-16 cells, 100 μg/mL): 80.5%; pigmentation of treated cells observed microscopically (melanocytes): Reduced pigmentation; reduction in melanin production (melan-a cell line [2]; 100 μg/mL): 79.4%; Cell viability (%) ([3]; mouse, 3 days, 1 μg/mL): 99.5 ± 5.4%; Cell viability (%) ([3]; mouse, 3 days, 5 μg/mL): 97.4 ± 5.9%; Cell viability (%) ([3]; mouse, 3 days, 10 μg/mL): 95.3 ± 7.6%; Cell viability (%) ([3]; mouse, 3 days, 50 μg/mL): 66.2 ± 8.3%; Cell viability (%) ([3]; mouse, 3 days, 100 μg/mL): 23.1 ± 4.8%; Cell viability (%) (melan-a cell line [4]; mouse, 72 h, 1 μg/mL): 99.0 ± 5.8%; Cell viability (%) (melan-a cell line [4]; mouse, 72 h, 5 μg/mL): 96.9 ± 7.9%; Cell viability (%) (melan-a cell line [4]; mouse, 72 h, 10 μg/mL): 94.7 ± 4.2%; Cell viability (%) (melan-a cell line [4]; mouse, 72 h, 50 μg/mL): 68.5 ± 5.5%; Cell viability (%) (melan-a cell line [4]; mouse, 72 h, 100 μg/mL): 27.3 ± 7.8%; inhibition of tyrosinase activity after 24 hours (Mushroom Tyrosinase [5]; 24 hours incubation, even at the lower concentrations tested, FIG. 4): about 90%; IC50 (Mushroom Tyrosinase [5]; read-out: IC50 for tyrosinase inhibition after 24 hours incubation, 24 hours incubation): 2600 nM; IC50 (Mushroom Tyrosinase [6]): 2.4 µM; inhibitory effect on mushroom tyrosinase (in words) (Mushroom Tyrosinase [6]; FIGS. 1 and 2): the most potent inhibitors of mushroom tyrosinase |

From patent publication US20060216253A1, “Whitening cosmetics containing morus alba extracts” (Time and Cross, Inc., priority 2005, published 2006)
